Measured values: patent publication US20090299034A1, “Collagen-related peptides” (priority 2007, published 2009)
Blank lines part the entries; values can stand above or below the molecule they belong to.

Key:
washed platelets [1] = test: Inhibition of platelet aggregation induced by collagen or CRP trimer SEQ ID 145; type: cell-based, human; conditions: GPIIb/IIIa antagonist at 10, 100 and 1000 nM, 5 min pre-incubation
washed platelets [2] = test: Human platelet aggregation assay; type: cell-based; conditions: for EC50 ± SEM platelet aggregation: Table 3
Protocol: Human platelet-rich plasma (PRP) concentrate from healthy volunteers was purchased from Biological Specialties, Inc. (Colmar, Pa.). […] The PRP was centrifuged at 730 g for 15 min. The resulting platelet pellet was washed twice in CGS buffer (13 mM sodium citrate, 30 mM glucose, 120 mM NaCl, pH 6.5) containing 1 U/mL apyrase (grade V, Sigma-Aldrich) and resuspended in Tyrode's buffer (140 mM NaCl, 2.7 mM KCl, 12 mM NaHCO3, 0.76 mM Na2HPO4, 5.5 mM dextrose, 5.0 mM Hepes, 0.2% BSA, pH 7.4). The “washed” platelets were diluted to 3×10^8 platelets/mL and kept >45 min at 37° C. before use.
For the assay, 105 μL of washed platelets, 2 mM CaCl2 and […] of fibrinogen were added to a 96-well microtiter plate. Platelet aggregation was initiated by the addition of serial concentrations of native collagen fibrils (equine type I; 92% identity with human collagen sequence; Chrono-log Corp., Havertown, Pa.) or test peptides. Buffer was added to one set of control wells. The assay plate was stirred constantly and intermittently placed in a microplate reader (Softmax, Molecular Devices, Menlo Park, Calif.) to read optical density (650 nm) at 0 and 5 min after the addition of the compound solutions. Aggregation was calculated as the decrease in optical density between the time-0 and 5-min measurements and expressed as percent of aggregation.
Peptides were dissolved in PBS (pH 7) or water (final pH 5) to a concentration of 2 mg/mL. Some samples were heated in a water bath (70° C.) for 10 min, filtered through a 0.45-μm filter and incubated for 24 h or 7 days at 4° C. […] (H+F) and re-annealed at 4° C.

Molecule: O=C(O)C[C@H](NC(=O)[C@@H]1CCCN(C(=O)CCC2CCNCC2)C1)c1cccnc1 [elarofiban]
inhibition of platelet aggregation induced by CRP trimer having SEQ ID 145 (washed platelets [1]): dose-dependent inhibition | inhibition of platelet aggregation induced by collagen (washed platelets [1]): dose-dependent inhibition

EC50 ± SEM platelet aggregation (washed platelets [2]; PBS, H + F, pH 7, incubation 24 h): Not Active
Molecule: (Pro-Xaa-Gly)10 [SEQ ID 154]
induction of platelet aggregation (washed platelets [2]; Example 4): failed to aggregate platelets | stimulation of platelet aggregation (washed platelets [2]; Example 6, FIG. 1): not effective

EC50 values (±SEM) platelet aggregation (washed platelets [2]; Example 6, FIG. 1, Table 4): 0.56 ± 0.09 µg/mL | EC50 ± SEM platelet aggregation (washed platelets [2]; native collagen fibrils, no peptide preparation): 0.25 µg/mL
Molecule: Collagen
